Bridge positions count the residues as written; N and C are the ends. Ends that are not written are not given here.
Test system: patients with chronic idiopathic constipation (CIC)
Test: Second phase 3 CIC trial: change from baseline in stool consistency (BSFS)
Type: in vivo, human
[1] = 6 mg, Week 9, ITT Population-Excluding Duplicate Patients
[2] = 6 mg, Week 10, All Randomized (includes Duplicate Patients)
[3] = 6 mg, Week 10, ITT Population-Excluding Duplicate Patients
[4] = 6 mg, Week 11, All Randomized (includes Duplicate Patients)
[5] = 6 mg, Week 11, ITT Population-Excluding Duplicate Patients
[6] = 6 mg, Week 12, All Randomized (includes Duplicate Patients)
[7] = 6 mg, Week 12, ITT Population-Excluding Duplicate Patients
[8] = 6 mg, overall average estimate across the 12-week treatment period, All Randomized (includes Duplicate Patients)
[9] = 6 mg, overall average estimate across the 12-week treatment period, ITT Population
[10] = 6 mg, overall average estimate across the 12-week treatment period, ITT Population-Excluding Duplicate Patients

Asn^1-Asp^2-Glu^3-Cys^4-Glu^5-Leu^6-Cys^7-Val^8-Asn^9-Val^10-Ala^11-Cys^12-Thr^13-Gly^14-Cys^15-Leu^16 (NDECELCVNVACTGCL; disulfide 4-12, 7-15) [Plecanatide, uroguanylin analogue, guanylate cyclase-C agonist; (C4:C12, C7:C15) bicycle peptide]
Change from Baseline in Stool Consistency, LS Mean (SE) (6 mg, Week 9, All Randomized (includes Duplicate Patients)): 1.54 (0.073)
Change from Baseline in Stool Consistency, Difference from Placebo (6 mg, Week 9, ITT Population): 0.68
Change from Baseline in Stool Consistency, LS Mean (SE) (6 mg, Week 9, ITT Population): 1.57 (0.075)
Change from Baseline in Stool Consistency, Mean (SD) (6 mg, Week 9, ITT Population): 1.62 (1.507)
Change from Baseline in Stool Consistency, Difference from Placebo [1]: 0.68
Change from Baseline in Stool Consistency, LS Mean (SE) [1]: 1.59 (0.075)
Change from Baseline in Stool Consistency, Mean (SD) [1]: 1.63 (1.510)
Change from Baseline in Stool Consistency, Difference from Placebo [2]: 0.62
Change from Baseline in Stool Consistency, LS Mean (SE) [2]: 1.52 (0.073)
Change from Baseline in Stool Consistency, Difference from Placebo (6 mg, Week 10, ITT Population): 0.62
Change from Baseline in Stool Consistency, LS Mean (SE) (6 mg, Week 10, ITT Population): 1.55 (0.075)
Change from Baseline in Stool Consistency, Mean (SD) (6 mg, Week 10, ITT Population): 1.59 (1.432)
Change from Baseline in Stool Consistency, Difference from Placebo [3]: 0.63
Change from Baseline in Stool Consistency, LS Mean (SE) [3]: 1.57 (0.075)
Change from Baseline in Stool Consistency, Mean (SD) [3]: 1.60 (1.437)
Change from Baseline in Stool Consistency, Difference from Placebo [4]: 0.58
Change from Baseline in Stool Consistency, LS Mean (SE) [4]: 1.50 (0.073)
Change from Baseline in Stool Consistency, Difference from Placebo (6 mg, Week 11, ITT Population): 0.57
Change from Baseline in Stool Consistency, LS Mean (SE) (6 mg, Week 11, ITT Population): 1.53 (0.075)
Change from Baseline in Stool Consistency, Mean (SD) (6 mg, Week 11, ITT Population): 1.58 (1.499)
Change from Baseline in Stool Consistency, Difference from Placebo [5]: 0.59
Change from Baseline in Stool Consistency, LS Mean (SE) [5]: 1.55 (0.076)
Change from Baseline in Stool Consistency, Mean (SD) [5]: 1.59 (1.504)
Change from Baseline in Stool Consistency, Difference from Placebo [6]: 0.48
Change from Baseline in Stool Consistency, LS Mean (SE) [6]: 1.48 (0.074)
Change from Baseline in Stool Consistency, Difference from Placebo (6 mg, Week 12, ITT Population): 0.49
Change from Baseline in Stool Consistency, LS Mean (SE) (6 mg, Week 12, ITT Population): 1.51 (0.076)
Change from Baseline in Stool Consistency, Mean (SD) (6 mg, Week 12, ITT Population): 1.58 (1.487)
Change from Baseline in Stool Consistency, Difference from Placebo [7]: 0.51
Change from Baseline in Stool Consistency, LS Mean (SE) [7]: 1.53 (0.076)
Change from Baseline in Stool Consistency, Mean (SD) [7]: 1.59 (1.492)
Change from Baseline in Stool Consistency, Difference from Placebo [8]: 0.63
Change from Baseline in Stool Consistency, LS Mean (SE) [8]: 1.47 (0.059)
Change from Baseline in Stool Consistency, Difference from Placebo [9]: 0.63
Change from Baseline in Stool Consistency, LS Mean (SE) [9]: 1.50 (0.061)
Change from Baseline in Stool Consistency, Difference from Placebo [10]: 0.64
Change from Baseline in Stool Consistency, LS Mean (SE) [10]: 1.52 (0.061)
Change from Baseline in Stool Consistency, Mean (SD) (Active Combined, Post-Treatment Week 13, All Randomized (includes Duplicate Patients)): 1.15 (1.387)
Change from Baseline in Stool Consistency, Mean (SD) (Active Combined, Post-Treatment Week 13, ITT Population): 1.14 (1.392)
Change from Baseline in Stool Consistency, Mean (SD) (Active Combined, Post-Treatment Week 13, ITT Population-Excluding Duplicate Patients): 1.14 (1.397)
Change from Baseline in Stool Consistency, Mean (SD) (Active Combined, Post-Treatment Week 14, All Randomized (includes Duplicate Patients)): 1.12 (1.394)
Change from Baseline in Stool Consistency, Mean (SD) (Active Combined, Post-Treatment Week 14, ITT Population): 1.12 (1.379)
Change from Baseline in Stool Consistency, Mean (SD) (Active Combined, Post-Treatment Week 14, ITT Population-Excluding Duplicate Patients): 1.12 (1.384)
Change from Baseline in Stool Consistency, Mean (SD) (Active Combined, Week 1, All Randomized (includes Duplicate Patients)): 1.41 (1.482)
Change from Baseline in Stool Consistency, Mean (SD) (Active Combined, Week 1, ITT Population): 1.42 (1.490)
Change from Baseline in Stool Consistency, Mean (SD) (Active Combined, Week 1, ITT Population-Excluding Duplicate Patients): 1.43 (1.482)
Change from Baseline in Stool Consistency, Mean (SD) (Active Combined, Week 2, All Randomized (includes Duplicate Patients)): 1.41 (1.563)
Change from Baseline in Stool Consistency, Mean (SD) (Active Combined, Week 2, ITT Population): 1.42 (1.571)
Change from Baseline in Stool Consistency, Mean (SD) (Active Combined, Week 2, ITT Population-Excluding Duplicate Patients): 1.43 (1.570)
Change from Baseline in Stool Consistency, Mean (SD) (Active Combined, Week 3, All Randomized (includes Duplicate Patients)): 1.48 (1.526)
Change from Baseline in Stool Consistency, Mean (SD) (Active Combined, Week 3, ITT Population): 1.49 (1.527)
Change from Baseline in Stool Consistency, Mean (SD) (Active Combined, Week 3, ITT Population-Excluding Duplicate Patients): 1.49 (1.532)
Change from Baseline in Stool Consistency, Mean (SD) (Active Combined, Week 4, ITT Population): 1.48 (1.550)
Change from Baseline in Stool Consistency, Mean (SD) (Active Combined, Week 4, ITT Population-Excluding Duplicate Patients): 1.49 (1.557)
Change from Baseline in Stool Consistency, Mean (SD) (Active Combined, Week 5, ITT Population): 1.63 (1.530)
Change from Baseline in Stool Consistency, Mean (SD) (Active Combined, Week 5, ITT Population-Excluding Duplicate Patients): 1.64 (1.535)
Change from Baseline in Stool Consistency, Mean (SD) (Active Combined, Week 6, ITT Population): 1.62 (1.525)
Change from Baseline in Stool Consistency, Mean (SD) (Active Combined, Week 6, ITT Population-Excluding Duplicate Patients): 1.62 (1.524)
Change from Baseline in Stool Consistency, Mean (SD) (Active Combined, Week 7, ITT Population): 1.57 (1.494)
Change from Baseline in Stool Consistency, Mean (SD) (Active Combined, Week 7, ITT Population-Excluding Duplicate Patients): 1.58 (1.498)
Change from Baseline in Stool Consistency, Mean (SD) (Active Combined, Week 8, ITT Population): 1.62 (1.520)
Change from Baseline in Stool Consistency, Mean (SD) (Active Combined, Week 8, ITT Population-Excluding Duplicate Patients): 1.62 (1.523)
Change from Baseline in Stool Consistency, Mean (SD) (Active Combined, Week 9, ITT Population): 1.65 (1.487)
Change from Baseline in Stool Consistency, Mean (SD) (Active Combined, Week 9, ITT Population-Excluding Duplicate Patients): 1.65 (1.489)
Change from Baseline in Stool Consistency, Mean (SD) (Active Combined, Week 10, ITT Population): 1.62 (1.485)
Change from Baseline in Stool Consistency, Mean (SD) (Active Combined, Week 10, ITT Population-Excluding Duplicate Patients): 1.62 (1.491)
Change from Baseline in Stool Consistency, Mean (SD) (Active Combined, Week 11, ITT Population): 1.58 (1.547)
Change from Baseline in Stool Consistency, Mean (SD) (Active Combined, Week 11, ITT Population-Excluding Duplicate Patients): 1.59 (1.548)
Change from Baseline in Stool Consistency, Mean (SD) (Active Combined, Week 12, ITT Population): 1.64 (1.483)
Change from Baseline in Stool Consistency, Mean (SD) (Active Combined, Week 12, ITT Population-Excluding Duplicate Patients): 1.64 (1.484)

— patent US20160367623A1, “AGONISTS OF GUANYLATE CYCLASE USEFUL FOR THE TREATMENT OF GASTROINTESTINAL DISORDERS, INFLAMMATION, CANCER AND OTHER DISORDERS” (priority 2015, published 2016)
